Read-outs that look alike come from different tables or passages of the source.
Assays:
[1] = target: T1, peripheral BZD receptor (Rattus norvegicus, UniProt P16257); assay: Receptor binding assay, peripheral BZD ([3H]RO5-4864 displacement, rat forebrain membranes); conditions: read-out: BENZODIAZEPINE RECEPTOR BINDING, PERIPHERAL BZD
T1 construct: Crude membranes were prepared by homogenization of a rat forebrain sample; from tissue; host or cells: rat forebrain crude membranes
Description: (§1) Crude membranes were prepared by homogenization of a rat forebrain sample in 20 ml of ice-cold 50 mM phosphate buffer (81 mM Na^+, 9 mMK^+) buffer with a Brinkman Polytron (setting 6, 15 sec). Buffer was added to obtain a final volume of 40 ml, and the homogenate was centrifuged in a Sorval SS-34 rotor at 39,000 g for 10 min at 0°-4° C. The resulting supernatant was decanted and discarded. The pellet was rehomogenized in ice-cold buffer, diluted, and centrifuged as before. The final pellet was resuspended in the assay buffer and held on ice for the receptor binding assay.
For the receptor binding assay, aliquots of the membrane preparation were incubated for 90 min at 4° C. in 50 mM phosphate buffer containing 0.5 nM [^3 H]RO-4864 and various concentrations of the unlabeled test compounds. The assay was terminated by rapid filtration through Whatman GF/B filters under vacuum. The filters were washed three times with 5-ml aliquots of ice-cold buffer, and the bound radioactivity trapped on the filters was counted by liquid scintillation spectrometry.
(§2) The inhibition constants (Ki) were calculated from the equation Ki=IC50/(I+L/Kd), where L is the radioligand concentration and Kd is the equilibrium dissociation constant for the radioligand. The IC50 was derived from the inhibition data by linear least squares regression of log (B/Bt-B) versus log I, where I is the test compound concentration, Bt is the total amount of radioligand specifically bound, and B is the amount of specific binding in the presence of a given concentration of the unlabeled test compound. The IC50 is the antilog of log I, when the expression log (B/Bt-B) equals zero.

[2] = target: neural BZD (central BZD receptor); assay: Benzodiazepine receptor binding, neural (central) BZD; parameters: species or system rat
Description: as §1, §2

[3] = system: mouse melanoma (B16 F10); assay: Proliferation assay (growth curves), B16 F10; type: cell-based; conditions: 100 nM, single application
Description: (§3) The rat pancreatic tumor cell line (AR42J) was obtained from the American Type Culture Collection. The human colon adenocarcinoma (HT-29) and mouse melanoma (B16 F10) were obtained from the in-house tumor bank. The HT-29 cell line is used to generate the CX-1 tumor in nude mice. All cell lines were propagated in Dulbecco's modified Eagle's medium (DMEM) supplemented with 10% fetal bovine serum (FBS) and incubated in a humidified atmosphere of 90% air/ 10% CO2 at 37° C. These cell lines were maintained at Biomeasure, Inc. and were free of mycoplasma as judged by the indirect (Hoechst) method and the direct (Agar) method.
(§4) Growth Curves--The AR42J and HT-29 cells were plated at 5×10^4 cells per well and the B16 F10 was plated at 1×10^4 cells per well in 24 well tissue cult ure dishes in 1ml of DMEM supplemented with 10% FBS. […] The tissue culture plates were incubated at 37° C. in a humidified atomsphere of 90% air/10% CO2 for up to 8 days. At various times, single cell suspensions were obtained by washing the wells with DMEM, adding 0.5 ml of 0.05% trypsin--0.53 mM EDTA, incubating at 37° C. for 5 min., triturating, and adding 0.5ml of DMEM supplemented with 10% FBS to inhibit the trypsin. The total content of each well was added to Isoton and counted using a Coulter Counter model ZF attached to a Channelizer model 256 to ensure that a uniform single cell population was obtained.

[4] = system: human colon adenocarcinoma (HT-29); assay: Proliferation assay (growth curves), HT-29; type: cell-based
Description: as §3, §4

[5] = system: rat pancreatic tumor cell line (AR42J); assay: Proliferation assay (growth curves), AR42J; type: cell-based; conditions: single application
Description: as §3, §4

[6] = read-out: BENZODIAZEPINE RECEPTOR BINDING, NEURAL BZD

Compound: CN1C(=O)N(C(=O)c2ccc(Cl)c(Cl)c2)N=C(c2ccccc2)c2ccccc21 [BIM-18156]
- Ki [1]: 1.68 nM

Compound: O=C1CN=C(c2ccccc2Cl)c2cc([N+](=O)[O-])ccc2N1 [CLONAZEPAM, clonazepam, reference compound]
- Ki [2, 6]: 0.55 nM
- Ki [1]: 10000 nM

Compound: CN1C(=O)CN=C(c2ccc(Cl)cc2)c2cc(Cl)ccc21 [RO5-4864]
- Ki [2, 6]: 7210 nM

Compound: CN1C(=O)N(Cc2ccc(F)cc2)N=C(c2ccccc2)c2ccccc21 [BIM-18268]
- Ki [1]: 12 nM

Compound: CN1C(=O)N(C(=O)c2ccc(F)c(F)c2)N=C(c2ccccc2)c2ccccc21 [BIM-18272]
- Ki [1]: 3.1 nM

Compound: CN1C(=O)CN=C(c2ccccc2)c2cc(Cl)ccc21 [DIAZEPAM, diazepam]
- Ki ([2]; read-out: BENZ[…] BINDING, NEURAL BZD): 8.4 nM

Compound: CN1C(=O)N(Cc2ccc(Cl)c(Cl)c2)N=C(c2ccccc2)c2ccccc21 [BIM-18269]
- Ki [1]: 53 nM

Compound: CN1C(=O)N(C(=O)c2ccc(F)cc2)N=C(c2ccccc2)c2ccccc21 [BIM-18154]
- inhibiting the growth of B16 F10 cells [3]: marginally active
- inhibition of growth ([4]; HT-29, day 4, single application): ~35%
- inhibiting the growth of HT-29 cells ([4]; single application): active
- inhibition of the growth of AR42J cells [5]: did not inhibit
- Ki [1]: 0.68 nM

Source: patent US5091381A, “2H-1,3,4-benzotriazepin-2-ones” (Biomeasure, Inc., priority 1991, dated 1992)
